Experimental data from patent US20110118218A1, “TREATING HYPERTENSION WITH 25-HYDROXYVITAMIN D3” (priority 2008, published 2011).

Assays:
[1] = Human clinical trial: blood pressure after daily/weekly oral treatment for 4 months; type: in vivo; conditions: for Diastolic blood pressure (GLM least square mean) / Systolic blood pressure (GLM least square mean): healthy postmenopausal women, 20 μg per day or 140 μg per week oral, repeated measurement analysis over 13 visits adjusted for baseline blood pressure and time; for Effect on blood pressure (in words): mildly hypertensive subjects, none above 146/95 mmHg
From the text: Each group includes five subjects. They are followed for four months in Ziirich, Switzerland during the winter.
Equimolar quantities of both substances were investigated. […] As the maximum pre-existing baseline concentration of 25-hydroxyvitamin D3 will be 50 nmol/L, it is not anticipated that subjects will approach the range where disturbance in Ca^2+ homeostasis has been observed.
Each dosage was consumed orally at breakfast.
For blood pressure assessments a standard protocol was used (OMRON professional apparatus) to measure diastolic and systolic blood pressure in Week 1 on visit 2 (baseline) and the remaining 4 days of Week 1. The assessments continued at each visit of Weeks 2, 3, 5, 7, 9, 11, 13 and 15.
Treatment duration was 4 months.

[2] = cited from earlier work
[3] = 20 μg per day or 140 μg per week, 4 months, 13 visits, adjusted for baseline blood pressure and time
[4] = daily or weekly treatment, identical dosages

Row | Structure (SMILES) | Diastolic blood pressure, change vs. daily/weekly Vitamin D3 [1, 3] | Systolic blood pressure, change vs. daily/weekly Vitamin D3 [1, 3] | Reduction of diastolic blood pressure versus Vitamin D3 [1, 4] | Reduction of systolic blood pressure versus Vitamin D3 [1, 4] | Diastolic blood pressure (GLM least square mean) ([1]; 4 months) | Systolic blood pressure (GLM least square mean) ([1]; 4 months) | Effect on blood pressure (in words) [1] | Blood concentration of 25-hydroxyvitamin D3 at which hypercalcemia may occur ([2]; in vivo) | Blood concentration of 25-hydroxyvitamin D3 resulting from ingestion as dietary supplement ([2]; ingestion of vitamin D3 at the safe upper level (250 μg/day))
1 | C=C1CC[C@H](O)C/C1=C/C=C1\CCC[C@]2(C)[C@@H]([C@H](C)CCCC(C)(C)O)CC[C@@H]12 [25-OH D3, 25-hydroxyvitamin D3] | −1.4 mmHg | −6.1 mmHg | 1.4 mmHg | 6.1 mmHg | 68.9 mmHg | 111.1 mmHg | very effective reduction of blood pressure | greater than 375 nmol/L | 
2 | C=C1CC[C@H](O)C/C1=C/C=C1\CCC[C@]2(C)[C@@H]([C@H](C)CCCC(C)C)CC[C@@H]12 [Vitamin D3, cholecalciferol] |  |  |  |  | 70.3 mmHg | 117.2 mmHg | no effect |  | about 200 nmol/L
